Measurements as given in publication PMC4373826, “Antiviral Effect of Methylated Flavonol Isorhamnetin against Influenza” (PLoS ONE, 2015).

Assays:
[1] = system: influenza A/PR/8/34 (H1N1); format: cell-based, influenza A virus; conditions: post-treatment 48 hr
[2] = molecular target: T1, influenza virus neuraminidase (Influenza A virus, UniProt P03468); assay: Neuraminidase inhibition (NAI) assay; format: biochemical; conditions: 50 μM
T1 construct: mixed with an equal volume of the virus solution (50 μL); host or cells: whole virus suspension
Method: The neuraminidase inhibition assay was carried out to examine the inhibitory effect of the tested flavonoids on influenza virus neuraminidase activity as described previously. The flavonoid compounds were used at concentrations of 10 μM, 50 μM, and 100 μM. Tamiflu, a specific NA blocker, was used as a control with a dose of 1 μM. This assay was conducted in 96-well plates; each flavonoid concentration (50 μL) was mixed with an equal volume of the virus solution (50 μL) using reaction buffer (sodium acetate buffer 150 mM, pH 7, and 1 mM calcium chloride) and incubated for 30 minutes at 37°C. For initiation of the enzymatic reaction, we added 100 μL of the substrate solution (4-MU-NANA; (2′-(4-methylumbelliferyl)-α-d-N-acetylneuraminic acid, sodium salt hydrate; Sigma-Aldrich) that dissolved in the enzyme buffer [33 mM 2-(N-morpholino) ethanesulfonic acid (MES), pH 6.5, and 4 mM CaCl2] to the final concentration of 100 μM to the flavonoids and the virus mixture (100 μL). This reaction mixture was protected from light and incubated at 37°C for 2 hr under shaking condition. For stopping of the reaction, we added the stop solution (150 μl of 0.014 N NaOH in 83% ethanol) to each well. The fluorescence of the released 4-methylumbelliferone fluorescence was measured using a fluorescence plate reader (Molecular Devices, Sunnyvale, CA, USA) (excitation 365 nm, emission 460 nm). […]

[3] = system: influenza A/PR/8/34 (H1N1) virus particles, chicken RBCs; conditions: lowest concentration
[4] = system: virus-induced ROS generation in MDCK cells; assay: Virus-induced ROS generation assay (H2DCFDA); format: cell-based, canine; conditions: 50 μM
Method: For the ROS generation assay, MDCK cells were seeded onto 24-well plates and incubated overnight for 80% confluence. The MDCK cells were infected with the virus as described previously and then treated with the flavonoids (post-treatment method). Intracellular ROS levels were detected using a cell-permeable oxidant-sensitive fluorescent probe, 2′, 7′-dichiorofluorescin diacetate (H2DCFDA, Molecular Probes, Eugene, OR, USA). The cells were incubated with 10 μM of H2DCFDA for 30 min at 37°C in the dark. After incubation, the cells were washed twice and covered with PBS. The average ROS generation was determined by fluorescent images that were captured using Nikon Eclipse TE2000-U fluorescence inverted microscope (Nikon, Tokyo, Japan). In this experiment, we used N-acetyl-L-cysteine (NAC; Sigma-Aldrich), a ROS scavenger reagent, and at a concentration of 15 mM as a positive control treatment.

[5] = system: influenza viral genes HA and NA; assay: RT-PCR of viral HA and NA genes; format: cell-based, influenza A virus
[6] = system: influenza A/PR/8/34 (H1N1); assay: microbe, parasite or virus in culture; conditions: MDCK
[7] = system: influenza A/PR/8/34 (H1N1)
ERK = assay: Western blot for ERK phosphorylation; format: cell-based, canine; conditions: 50 μM
Method: To prepare whole-cell extracts, cells were washed 3 times using cold PBS, scraped from the dishes, and suspended in protein extraction buffer containing 1% Triton X-100 (Amresco), 100 mM Tris-HCl, 10 mM NaCl, 10% glycerol, 1 mM sodium orthovanadate (Sigma-Aldrich), 50 mM sodium fluoride (Sigma-Aldrich), and 1 mM phenylmethylsulfonyl fluoride (PMSF; Sigma-Aldrich). After incubation on ice for 30 min, lysates were centrifuged and proteins in the supernatants were quantified using the Bradford Protein Assay Reagent (Bio-Rad). Protein samples were separated via 10% SDS-PAGE and transferred to nitrocellulose membranes ([…]; Protran, Newton, NJ, USA). The membranes were blocked using 5% nonfat dry milk and 0.1% Tween-20 in Tris-buffered saline and probed with the primary antibody. Western blotting was performed using antibodies against t-ERK, p-ERK, actin (Santa Cruz Biotechnology, Dallas, TX, USA), and LC3B (Novus Biologicals, San Diego, CA, USA), as well as anti-mouse, anti-rabbit, and anti-goat IgG-peroxidase-conjugated secondary antibodies (Santa Cruz Biotechnology) and an enhanced chemiluminescence (ECL) kit (Amersham Biosciences, Piscataway, NJ, USA).

[8] = system: influenza A/PR/8/34 (H1N1); assay: in vitro; conditions: dog, SI (selective index, CC50/EC50)
[9] = system: virus-induced autophagic puncta / acidic vesicular organelles in MDCK cells; assay: Virus-induced autophagy assay (AVO staining with AO and MDC); format: cell-based, canine; conditions: 50 μM
Method: To examine the ability of isorhamnetin to block the formation of acidic vesicular organelles (AVOs) after influenza A virus infection, we used various vital staining methods for AVOs, as described previously. Briefly, MDCK cells were cultured on 24-well plates until 80% confluence. Cells were infected with influenza A/PR/08/34 (H1N1) virus as described previously and treated with 50 μM of isorhamnetin using the 3 aforementioned methods of flavonoid treatment (pre-treatment, co-treatment, and post-treatment methods). Cells were stained with 5 μg/mL acridine orange (AO) (Sigma-Aldrich) and 50 μM of monodansylcadaverine (MDC) (Sigma-Aldrich)for 15 min at 37°C and washed 3 times with PBS, after which the cells were examined under a fluorescence microscope (Carl Zeiss, Jena, Germany) to allow detection of autophagic puncta.

T1 sequence (P03468 whole entry): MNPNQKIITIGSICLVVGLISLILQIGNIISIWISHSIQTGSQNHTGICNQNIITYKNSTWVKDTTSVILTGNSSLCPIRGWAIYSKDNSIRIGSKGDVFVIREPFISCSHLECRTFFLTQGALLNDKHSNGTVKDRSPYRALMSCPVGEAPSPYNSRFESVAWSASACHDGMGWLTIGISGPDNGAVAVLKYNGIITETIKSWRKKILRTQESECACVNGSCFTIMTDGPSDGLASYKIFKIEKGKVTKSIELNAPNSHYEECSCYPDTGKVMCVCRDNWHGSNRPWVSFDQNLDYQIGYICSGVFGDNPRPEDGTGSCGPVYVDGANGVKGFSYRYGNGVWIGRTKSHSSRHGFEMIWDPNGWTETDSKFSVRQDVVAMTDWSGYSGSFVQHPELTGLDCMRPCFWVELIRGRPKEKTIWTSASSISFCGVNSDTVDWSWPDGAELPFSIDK

COc1cc(-c2oc3cc(O)cc(O)c3c(=O)c2O)ccc1O [Isorhamnetin, isorhamnetin]
virus titer in HA assay (virus yield reduction) [1]: almost completely suppressed
NA activity [2]: significantly inhibited
hemolysis of chicken RBCs by the virus particle (HI assay) [3]: significantly inhibited
virus-induced ROS generation [4]: significant reduction
expression of HA and NA [5]: markedly decreased
EC50 ([6]; 0.5 h, Co-treatment (0.5 hr)): 76 µM
EC50 ([6]; 1 h, Co-treatment (1 hr)): 42 µM
EC50 ([6]; 2 h, Co-treatment (2 hr)): < 30 µM
EC50 ([6]; 48 h, Post-treatment): 23 µM
EC50 ([6]; Pre-treatment (1 hr)): 51 µM
EC50 ([6]; Pre-treatment (12 hr)): 65 µM
EC50 ([6]; Pre-treatment (24 hr)): 88 µM
cell viability after viral infection [7]: increased cell viability in comparison with quercetin treatment
viral infection ([7]; 50 μM, co-treatment for 2 hr): significantly inhibited
influenza virus-induced cell death ([7]; post-treatment): apparent suppression
virus-induced ERK phosphorylation (ERK): significantly suppressed
selectivity ratio ([8]; Co-treatment (2 hr)): > 9
selectivity ratio ([8]; Post-treatment): > 12
virus-induced autophagic puncta formation and AVO acidification ([9]; post-treatment): almost completely blocked
virus-induced autophagic puncta formation and acidification of AVOs ([9]; pre-, co-, and post-treatment): significantly suppressed
